Tested on: 855422-203-R-J1-PDC spheroids with HUVEC/MSC, viability
Experiment: Anticancer human tumor 855422-203-R-J1-PDC patient-derived bladder carcinoma cell line growth inhibition [PI3K]
Conditions: for viability, T/C: stronger effect = lower value; active = viability on the fitted dose curve at most 10% of control; inactive = the rest
Procedure, shortened: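 Agents were dosed from a top concentration near clinical Cmax (otherwise 10 microM) in half-log decrements, alone or combined with PI3K inhibitors. The spheroids contain tumor cells plus endothelial (HUVEC) and MSC stroma; viability is measured.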

[1] = curve of first compound, second compound 0.0316 µM
[2] = curve of first compound, second compound 0.1 µM
[3] = curve of first compound, second compound 0.316 µM
[4] = curve of first compound, second compound 1 µM
[5] = curve of first compound, second compound 3.16 µM
[6] = curve of first compound, second compound 10 µM
[7] = second compound 0.0316 µM, first compound 0.0316 µM
[8] = second compound 0.0316 µM, first compound 0.1 µM
[9] = second compound 0.0316 µM, first compound 0.316 µM
[10] = second compound 0.0316 µM, first compound 1 µM
[11] = second compound 0.0316 µM, first compound 3.16 µM
[12] = second compound 0.0316 µM, first compound 10 µM
[13] = second compound 0.1 µM, first compound 0.0316 µM
[14] = second compound 0.1 µM, first compound 0.1 µM
[15] = second compound 0.1 µM, first compound 0.316 µM
[16] = second compound 0.1 µM, first compound 1 µM
[17] = second compound 0.1 µM, first compound 3.16 µM
[18] = second compound 0.1 µM, first compound 10 µM
[19] = second compound 0.316 µM, first compound 0.0316 µM
[20] = second compound 0.316 µM, first compound 0.1 µM
[21] = second compound 0.316 µM, first compound 0.316 µM
[22] = second compound 0.316 µM, first compound 1 µM
[23] = second compound 0.316 µM, first compound 3.16 µM
[24] = second compound 0.316 µM, first compound 10 µM
[25] = second compound 1 µM, first compound 0.0316 µM
[26] = second compound 1 µM, first compound 0.1 µM
[27] = second compound 1 µM, first compound 0.316 µM
[28] = second compound 1 µM, first compound 1 µM
[29] = second compound 1 µM, first compound 3.16 µM
[30] = second compound 1 µM, first compound 10 µM
[31] = second compound 3.16 µM, first compound 0.0316 µM
[32] = second compound 3.16 µM, first compound 0.1 µM
[33] = second compound 3.16 µM, first compound 0.316 µM
[34] = second compound 3.16 µM, first compound 1 µM
[35] = second compound 3.16 µM, first compound 3.16 µM
[36] = second compound 3.16 µM, first compound 10 µM
[37] = second compound 10 µM, first compound 0.0316 µM
[38] = second compound 10 µM, first compound 0.1 µM
[39] = second compound 10 µM, first compound 0.316 µM
[40] = second compound 10 µM, first compound 1 µM
[41] = second compound 10 µM, first compound 3.16 µM
[42] = second compound 10 µM, first compound 10 µM
[43] = curve of first compound, second compound 0.00316 µM
[44] = curve of first compound, second compound 0.01 µM
[45] = second compound 0.00316 µM, first compound 0.0316 µM
[46] = second compound 0.00316 µM, first compound 0.1 µM
[47] = second compound 0.01 µM, first compound 0.0316 µM
[48] = second compound 0.01 µM, first compound 0.1 µM
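Note: agents incubated with spheroids for one week before read-out.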
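Throughout, for viability, T/C: 100% = DMSO vehicle-treated control wells.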

CC(Cn1ccc(-c2ccc(C#N)c(Cl)c2)n1)NC(=O)c1cc(C(C)O)[nH]n1 (stereo not given) + Cc1nc(NC(=O)N2CCCC2C(N)=O)sc1-c1ccnc(C(C)(C)C(F)(F)F)c1
> 10000 nM: IC50 [1] | IC50 [2] | IC50 [3] | IC50 [4]
< 31.6 nM: IC50 [5] | IC50 [6]
inactive: viability, T/C [7] 110% | viability, T/C [8] 87.1% | viability, T/C [9] 114% | viability, T/C [10] 102% | viability, T/C [11] 102% | viability, T/C [12] 87.5% | viability, T/C [13] 104% | viability, T/C [14] 94.6% | viability, T/C [15] 105% | viability, T/C [16] 91.6% | viability, T/C [17] 98.5% | viability, T/C [18] 89.2% | viability, T/C [19] 91.2% | viability, T/C [20] 88.2% | viability, T/C [21] 94.4% | viability, T/C [22] 89.6% | viability, T/C [23] 98.1% | viability, T/C [24] 86.7% | viability, T/C [25] 71.7% | viability, T/C [26] 76.7% | viability, T/C [27] 73.9% | viability, T/C [28] 77.8% | viability, T/C [29] 81.3% | viability, T/C [30] 62.3% | viability, T/C [31] 44.9% | viability, T/C [32] 45% | viability, T/C [33] 48.5% | viability, T/C [34] 46.5% | viability, T/C [35] 49.9% | viability, T/C [36] 37% | viability, T/C [37] 24.4% | viability, T/C [38] 22.5% | viability, T/C [39] 22% | viability, T/C [40] 26.9% | viability, T/C [41] 28% | viability, T/C [42] 17.4%

CC(Cn1ccc(-c2ccc(C#N)c(Cl)c2)n1)NC(=O)c1cc(C(C)O)[nH]n1 (stereo not given)
> 10000 nM: IC50 (curve of compound)
inactive: viability, T/C (compound 0.0316 µM) 108% [middle of 4 runs] | viability, T/C (compound 0.1 µM) 96.9% [middle of 4 runs] | viability, T/C (compound 0.316 µM) 110% [middle of 4 runs] | viability, T/C (compound 1 µM) 93.5% [middle of 4 runs] | viability, T/C (compound 3.16 µM) 97.2% [middle of 4 runs] | viability, T/C (compound 10 µM) 86.2% [middle of 4 runs]

C[C@@H](NC(=O)c1ncnc(N)c1Cl)c1ncc(C(=O)Nc2cc(C(F)(F)F)c(Cl)cn2)s1 + COc1c(OCCCN2CCOCC2)ccc2c3n(c(=NC(=O)c4cnc(N)nc4)nc12)CCN3
inactive: viability, T/C [45] 93.8% | viability, T/C [46] 91.3% | viability, T/C (second compound 0.00316 µM, first compound 0.316 µM) 104% | viability, T/C (second compound 0.00316 µM, first compound 1 µM) 97.4% | viability, T/C (second compound 0.00316 µM, first compound 3.16 µM) 109% | viability, T/C (second compound 0.00316 µM, first compound 10 µM) 113% | viability, T/C [47] 80% | viability, T/C [48] 85.2% | viability, T/C (second compound 0.01 µM, first compound 0.316 µM) 88.5% | viability, T/C (second compound 0.01 µM, first compound 1 µM) 89.4% | viability, T/C (second compound 0.01 µM, first compound 3.16 µM) 108% | viability, T/C (second compound 0.01 µM, first compound 10 µM) 83% | viability, T/C [7] 59.4% | viability, T/C [8] 69.3% | viability, T/C [9] 68.8% | viability, T/C [10] 61.6% | viability, T/C [11] 71.3% | viability, T/C [12] 36.7% | viability, T/C [13] 35.9% | viability, T/C [14] 38.3% | viability, T/C [15] 33.7% | viability, T/C [16] 35.9% | viability, T/C [17] 27.8% | viability, T/C [18] 16.2% | viability, T/C [19] 13.4% | viability, T/C [20] 12.5% | viability, T/C [21] 12.5% | viability, T/C [22] 13.7%
> 10000 nM: IC50 [43] | IC50 [44] | IC50 [1]
< 31.6 nM: IC50 [2] | IC50 [3] | IC50 [4]
active: viability, T/C [23] 11.2% | viability, T/C [24] 5.99% | viability, T/C [25] 4.22% | viability, T/C [26] 7.01% | viability, T/C [27] 5.73% | viability, T/C [28] 4.13% | viability, T/C [29] 3.47% | viability, T/C [30] 1.26%

Cc1nc(NC(=O)N2CCCC2C(N)=O)sc1-c1ccnc(C(C)(C)C(F)(F)F)c1 (stereo not given)
inactive: viability, T/C (compound 0.0316 µM) 107% [middle of 8 runs] | viability, T/C (compound 1 µM) 75.8% [middle of 8 runs] | viability, T/C (compound 3.16 µM) 43% [middle of 8 runs] | viability, T/C (compound 10 µM) 22.2% [middle of 8 runs]
2.53 µM [middle of 8 runs]: IC50 (compound alone, run of 05/08/2023)

CNC(=O)c1ccc(N2C(=S)N(c3ccc(C#N)c(C(F)(F)F)c3)C(=O)C2(C)C)cc1F + CC(Nc1ncnc2nc[nH]c12)c1cc2cccc(Cl)c2c(=O)n1-c1ccccc1
inactive: viability, T/C [7] 111% | viability, T/C [8] 93% | viability, T/C [9] 109% | viability, T/C [10] 89.1% | viability, T/C [11] 86.2% | viability, T/C [12] 75.4% | viability, T/C [13] 117% | viability, T/C [14] 91.1% | viability, T/C [15] 104% | viability, T/C [16] 86.6% | viability, T/C [17] 74.3% | viability, T/C [18] 68.5% | viability, T/C [19] 96.9% | viability, T/C [20] 105% | viability, T/C [21] 102% | viability, T/C [22] 80.2% | viability, T/C [23] 76.5% | viability, T/C [24] 63.1% | viability, T/C [25] 97.4% | viability, T/C [26] 102% | viability, T/C [27] 106% | viability, T/C [28] 91.4% | viability, T/C [29] 73% | viability, T/C [30] 69.1% | viability, T/C [31] 100% | viability, T/C [32] 100% | viability, T/C [33] 100% | viability, T/C [34] 84.3% | viability, T/C [35] 76% | viability, T/C [36] 77.7% | viability, T/C [37] 89% | viability, T/C [38] 80.9% | viability, T/C [39] 95.8% | viability, T/C [40] 81% | viability, T/C [41] 77.4% | viability, T/C [42] 68.4%
> 10000 nM: IC50 [1] | IC50 [2] | IC50 [3] | IC50 [4] | IC50 [5] | IC50 [6]

CC(C)n1nc(-c2ccc3oc(N)nc3c2)c2c(N)ncnc21 + CC(Nc1ccc2c(c1)OCCn1cc(N3C(=O)OCC3C(F)F)nc1-2)C(N)=O
active: viability, T/C [20] 7.57% | viability, T/C [26] 6.71%
6.08 nM: IC50 [3]
38 nM: IC50 [1]
inactive: viability, T/C (second compound 0.00316 µM, first compound 0.000316 µM) 113% | viability, T/C (second compound 0.00316 µM, first compound 0.001 µM) 90.1% | viability, T/C (second compound 0.00316 µM, first compound 0.00316 µM) 108% | viability, T/C (second compound 0.00316 µM, first compound 0.01 µM) 92.3% | viability, T/C [45] 74.2% | viability, T/C [46] 18.3% | viability, T/C (second compound 0.01 µM, first compound 0.000316 µM) 87.7% | viability, T/C (second compound 0.01 µM, first compound 0.001 µM) 92.9% | viability, T/C (second compound 0.01 µM, first compound 0.00316 µM) 98.7% | viability, T/C (second compound 0.01 µM, first compound 0.01 µM) 81.4% | viability, T/C [47] 63.1% | viability, T/C [48] 19% | viability, T/C (second compound 0.0316 µM, first compound 0.000316 µM) 91% | viability, T/C (second compound 0.0316 µM, first compound 0.001 µM) 84.4% | viability, T/C (second compound 0.0316 µM, first compound 0.00316 µM) 82% | viability, T/C (second compound 0.0316 µM, first compound 0.01 µM) 72% | viability, T/C [7] 59.6% | viability, T/C [8] 14.4% | viability, T/C (second compound 0.1 µM, first compound 0.000316 µM) 71.8% | viability, T/C (second compound 0.1 µM, first compound 0.001 µM) 72.7% | viability, T/C (second compound 0.1 µM, first compound 0.00316 µM) 78.7% | viability, T/C (second compound 0.1 µM, first compound 0.01 µM) 69.9% | viability, T/C [13] 46.6% | viability, T/C [14] 11.4% | viability, T/C (second compound 0.316 µM, first compound 0.000316 µM) 59.3% | viability, T/C (second compound 0.316 µM, first compound 0.001 µM) 55.9% | viability, T/C (second compound 0.316 µM, first compound 0.00316 µM) 58.7% | viability, T/C (second compound 0.316 µM, first compound 0.01 µM) 43.3% | viability, T/C [19] 32.7% | viability, T/C (second compound 1 µM, first compound 0.000316 µM) 39.8% | viability, T/C (second compound 1 µM, first compound 0.001 µM) 38.4% | viability, T/C (second compound 1 µM, first compound 0.00316 µM) 36% | viability, T/C (second compound 1 µM, first compound 0.01 µM) 34% | viability, T/C [25] 24.1%
43.9 nM: IC50 [44]
51.8 nM: IC50 [43]
< 0.316 nM: IC50 [4]
26.8 nM: IC50 [2]

Reference: PubChem BioAssay AID1963967 (Molecular Pharmacology Branch, DTP, NCI, 2024)
